In patent US9556201B2, “Bicyclic pyridines and analogs as sirtuin modulators” (GLAXOSMITHKLINE LLC, priority 2009, dated 2017):

Target: T1, SIRT1 (Homo sapiens, UniProt Q96EB6)
T1 sequence (Q96EB6 1-747): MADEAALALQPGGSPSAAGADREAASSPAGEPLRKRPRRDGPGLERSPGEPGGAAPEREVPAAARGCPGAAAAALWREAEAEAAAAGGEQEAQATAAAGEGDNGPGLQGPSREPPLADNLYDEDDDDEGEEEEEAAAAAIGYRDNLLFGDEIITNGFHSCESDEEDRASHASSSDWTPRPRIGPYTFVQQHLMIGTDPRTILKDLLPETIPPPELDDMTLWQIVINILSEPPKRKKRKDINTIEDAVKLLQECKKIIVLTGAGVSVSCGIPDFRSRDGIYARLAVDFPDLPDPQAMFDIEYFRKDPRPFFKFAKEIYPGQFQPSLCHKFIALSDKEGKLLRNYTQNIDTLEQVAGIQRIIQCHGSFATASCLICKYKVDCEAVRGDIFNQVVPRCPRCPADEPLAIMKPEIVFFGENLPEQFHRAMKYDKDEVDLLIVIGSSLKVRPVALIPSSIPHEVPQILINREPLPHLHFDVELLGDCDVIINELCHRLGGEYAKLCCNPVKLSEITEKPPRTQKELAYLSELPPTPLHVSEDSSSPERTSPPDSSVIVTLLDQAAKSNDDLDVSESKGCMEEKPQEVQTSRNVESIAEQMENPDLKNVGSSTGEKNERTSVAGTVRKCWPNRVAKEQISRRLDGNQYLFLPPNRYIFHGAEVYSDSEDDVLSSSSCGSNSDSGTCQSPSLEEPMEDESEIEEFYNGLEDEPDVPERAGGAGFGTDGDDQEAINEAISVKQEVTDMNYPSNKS
Test: Mass spectrometry based assay to identify modulators of SIRT1 activity (deacetylation of p53-based acetylated peptide substrate)
Format: biochemical
Conditions: for Emax: 25 min, SIRT1 activation, read-out: % FOLD ACT. (percent maximum fold activation)
Method in brief: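 Deacetylation of a modified p53 acetyl-lysine peptide ([…], 5TMR-labelled, Nle for Met) by 10 nM N-His SIRT1 with 120 μM βNAD+, pH 8, 25 min, 25 °C. Substrate and product masses measured by MS after formic acid quench; nicotinamide defines maximal inhibition.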

Structure (SMILES)	EC1.5 (concentration giving 1.5-fold activation) [µM]	Emax [%]
O=C1CCCN(C(=O)Nc2ccncc2)c2nc(-c3cccc(Cl)c3)ccc21 [Compound 756]	1 to 25	> 200
CCN1C(=O)CCN(C(=O)Nc2ccccn2)c2nc(-c3cccc(Cl)c3)ccc21 [Compound 765, 7-(3-chlorophenyl)-1-ethyl-2-oxo-N-(pyridin-2-yl)-3,4-dihydro-1H-pyrido[2,3-b][1,4]diazepine-5(2H)-carboxamide]	> 25	≤ 200
O=C1CCCN(C(=O)Nc2ccncc2F)c2nc(-c3cccc(Cl)c3)ccc21 [Compound 767]	1 to 25	≤ 200
O=C(Nc1ccncc1)N1CCCC(F)(F)c2ccc(-c3cccc(Cl)c3)nc21 [Compound 770]	> 25	≤ 200
O=C(Nc1cccnc1)N1CCCC(F)(F)c2ccc(-c3cccc(Cl)c3)nc21 [Compound 771]	> 25	≤ 200
Cc1cc(NC(=O)N2CCCC(F)(F)c3ccc(-c4cccc(Cl)c4)nc32)cc(C)n1 [Compound 772]	1 to 25	> 200
Cc1cc(NC(=O)N2CCCC(F)(F)c3ccc(-c4cccc(Cl)c4)nc32)ccn1 [Compound 773]	1 to 25	> 200
CCN1C(=O)CCN(C(=O)Nc2ccncc2F)c2nc(-c3cccc(Cl)c3)ccc21 [Compound 774]	> 25	≤ 200
CCN1C(=O)CCN(C(=O)Nc2cccc(C)n2)c2nc(-c3cccc(Cl)c3)ccc21 [Compound 776]	> 25	≤ 200
CCN1CCCN(C(=O)Nc2ccncc2)c2nc(-c3cccc(Cl)c3)ccc21 [Compound 777]	1 to 25	> 200
O=C(Nc1ccccn1)N1CCCC(F)(F)c2ccc(-c3cccc(Cl)c3)nc21 [Compound 778]	> 25	≤ 200
Cc1csc(NC(=O)N2CCCC(F)(F)c3ccc(-c4cccc(Cl)c4)nc32)n1 [Compound 779]	> 25	≤ 200
Cc1cccc(NC(=O)N2CCCC(F)(F)c3ccc(-c4cccc(Cl)c4)nc32)n1 [Compound 780]	> 25	≤ 200
O=C(Nc1cccc(OC[C@H](O)CO)n1)N1CCCC(F)(F)c2ccc(-c3cccc(Cl)c3)nc21 [Compound 781]	1 to 25	> 200
O=C(Nc1ccncc1F)N1CCCC(F)(F)c2ccc(-c3cccc(Cl)c3)nc21 [Compound 782]	> 25	≤ 200
CC1(C)CCN(C(=O)Nc2ccccn2)c2nc(-c3cccc(Cl)c3)ccc2C1=O [Compound 783]	> 25	≤ 200

Structure (SMILES)	EC1.5 (concentration giving 1.5-fold activation) [µM]	Emax [%]
Cc1cnccc1NC(=O)N1CCC(C)c2ccc(-c3cccc(C(F)(F)F)c3)nc21 (stereo not drawn) [Compound 784]	1 to 25	> 200
CC1CCN(C(=O)Nc2ccccn2)c2nc(-c3cccc(C(F)(F)F)c3)ccc21 (stereo not drawn) [Compound 785, 4-methyl-N-(pyridin-2-yl)-7-(3-(trifluoromethyl)phenyl)-3,4-dihydro-1,8-naphthyridine-1(2H)-carboxamide]	< 1	> 200
CCN1C(=O)CCN(C(=O)Nc2cccc(OC[C@@H](O)CO)n2)c2nc(-c3cccc(Cl)c3)ccc21 [Compound 788]	> 25	≤ 200
CCN1CCCN(C(=O)Nc2cccnc2)c2nc(-c3cccc(Cl)c3)ccc21 [Compound 789, 7-(3-chlorophenyl)-1-ethyl-N-(pyridin-3-yl)-3,4-dihydro-1H-pyrido[2,3-b][1,4]diazepine-5(2H)-carboxamide]	1 to 25	> 200
CCN1C(=O)CCN(C(=O)Nc2ccc(F)cn2)c2nc(-c3cccc(Cl)c3)ccc21 [Compound 791]	> 25	≤ 200
CCN1C(=O)CCN(C(=O)Nc2ccnc(OC)n2)c2nc(-c3cccc(Cl)c3)ccc21 [Compound 792]	> 25	≤ 200
CCN1CCCN(C(=O)Nc2cccc(OC[C@@H](O)CO)n2)c2nc(-c3cccc(Cl)c3)ccc21 [Compound 796]	1 to 25	> 200
CCN1CCCN(C(=O)Nc2cccc(C)n2)c2nc(-c3cccc(Cl)c3)ccc21 [Compound 797]	> 25	≤ 200
CC1CCN(C(=O)Nc2cncnc2)c2nc(-c3cccc(C(F)(F)F)c3)ccc21 (stereo not drawn) [Compound 802]	< 1	> 200
CC1CCN(C(=O)Nc2ncccc2F)c2nc(-c3cccc(C(F)(F)F)c3)ccc21 (stereo not drawn) [Compound 803]	1 to 25	> 200
CCN1CCCN(C(=O)Nc2cc(C)cc(C)n2)c2nc(-c3cccc(Cl)c3)ccc21 [Compound 806]	> 25	≤ 200
CCN1CCCN(C(=O)Nc2ccncc2F)c2nc(-c3cccc(Cl)c3)ccc21 [Compound 808]	1 to 25	> 200
O=C(Nc1ccncc1)N1CCCCc2ccc(-c3cccc(C(F)(F)F)c3)nc21 [Compound 810]	1 to 25	> 200
O=C(Nc1ccccn1)N1CCCCc2ccc(-c3cccc(C(F)(F)F)c3)nc21 [Compound 812]	1 to 25	≤ 200
O=C(Nc1ccccn1)N1CCC(F)(F)c2ccc(-c3cccc(C(F)(F)F)c3)nc21 [Compound 814, 4,4-difluoro-N-(pyridin-2-yl)-7-(3-(trifluoromethyl)phenyl)-3,4-dihydro-1,8-naphthyridine-1(2H)-carboxamide]	> 25	≤ 200

The remaining lines, values ahead:

EC1.5 (concentration giving 1.5-fold activation) [µM]	Emax [%]	Structure (SMILES)
1 to 25	> 200	O=C(Nc1ccncn1)N1CCCCc2ccc(-c3cccc(Cl)c3)nc21 [Compound 755]
> 25	≤ 200	CN(C)c1nc(-c2cccc(F)c2)nc2c1OCCN2C(=O)Nc1ccncn1 [Compound 757]
> 25	≤ 200	O=C(Nc1ccncn1)N1CCOc2c(N3CCOCC3)nc(-c3cccc(F)c3)nc21 [Compound 758]
1 to 25	> 200	O=C(Nc1ccncn1)N1CCOc2c(N3CCNCC3)nc(-c3cccc(F)c3)nc21 [Compound 759]
1 to 25	> 200	CC1(C)CN(C(=O)Nc2ccccn2)c2nc(-c3cccc(F)c3)ccc2O1 [Compound 760]
1 to 25	> 200	O=C(Nc1ccccn1)N1CCCOc2ccc(-c3cccc(Cl)c3)nc21 [Compound 761]
1 to 25	≤ 200	O=C(Nc1ccc(F)cn1)N1CCCOc2ccc(-c3cccc(Cl)c3)nc21 [Compound 762]
1 to 25	> 200	Cc1ccnc(NC(=O)N2CCCOc3ccc(-c4cccc(Cl)c4)nc32)c1 [Compound 763]
< 1	> 200	O=C1CCCN(C(=O)Nc2ccccn2)c2nc(-c3cccc(Cl)c3)ccc21 [Compound 768]
1 to 25	> 200	O=C(Nc1ccncc1F)N1CCCOc2ccc(-c3cccc(Cl)c3)nc21 [Compound 769]
> 25	≤ 200	CCN1C(=O)CCN(C(=O)Nc2ccncn2)c2nc(-c3cccc(Cl)c3)ccc21 [Compound 775]
> 25	≤ 200	CCN1CCCN(C(=O)Nc2ccccn2)c2nc(-c3cccc(Cl)c3)ccc21 [Compound 790]
> 25	≤ 200	O=C(Nc1ccc(F)cn1)N1CCCC(F)(F)c2ccc(-c3cccc(Cl)c3)nc21 [Compound 798]
1 to 25	≤ 200	O=C(Nc1ccncn1)N1CCCC(F)(F)c2ccc(-c3cccc(Cl)c3)nc21 [Compound 799, 2-(3-chlorophenyl)-5,5-difluoro-N-(pyrimidin-4-yl)-7,8-dihydro-5H-pyrido[2,3-b]azepine-9(6H)-carboxamide]
> 25	≤ 200	CCN1CCCN(C(=O)Nc2ccc(F)cn2)c2nc(-c3cccc(Cl)c3)ccc21 [Compound 807]
1 to 25	> 200	CCN1CCCN(C(=O)Nc2ccncn2)c2nc(-c3cccc(Cl)c3)ccc21 [Compound 809]
1 to 25	≤ 200	COc1nccc(NC(=O)N2CCCCc3ccc(-c4cccc(C(F)(F)F)c4)nc32)n1 [Compound 811]
